Measurements published in patent US8193333B2, “Cancer therapy using Bcl-Xl-specific siNA” (Centre Regional de Lutte Contre le Cancer-Centre Francois …, priority 2006, dated 2012).

Experiments:
Bcl-XL protein = assay: Western blot of Bcl-XL protein expression in tumour cell lines after siRNA transfection; assay type: cell-based, human; details: SKOV3 cells
Description: SKOV3, OAW42, OAW42-R10, IGROV1 and IGROV1-R10 human ovarian adenocarcinoma cell lines, GL15 glioblastoma cell line, and NCI-H28 mesothelioma cell line were obtained from ECACC or ATCC. OAW42, OAW42-R10 cells were grown in DMEM (GIBCO-BRL) supplemented with 10% foetal calf serum (GIBCO-BRL), 2 mM Glutamax™ (GIBCO-BRL), 1 mM sodium pyruvate (GIBCO-BRL), 20 UI/L human recombinant insulin (LILLY), 33 mM sodium bicarbonate and 20 mM HEPES All the other cell lines were grown in RPMI 1640 medium (GIBCO-BRL) supplemented with 10% foetal calf serum (GIBCO-BRL), 2 mM Glutamax™ (GIBCO-BRL), 33 mM sodium bicarbonate and 20 mM HEPES. Cells were maintained at 37° C. in a 5% CO2 humidified atmosphere, and split twice a week by trypsinization.
(§1) Exponentially growing cells were exposed to CDDP for 2 hours at 37° C., in serum free medium. After exposure to the drug, the cell layers were rinsed and incubated in complete growth medium.
(§2) The siRNA duplexes were transfected according to the recommended procedure by using the Oligofectamine Reagent and Opti-MEM medium (INVITROGEN LIFE TECHNOLOGIES). 30-40% confluent cells were transfected in 25 cm^2 flasks with different concentrations of siXL1, siRNA Mcl-1 or siRNA control and incubated at 37° C., 5% CO2 for 4 hours. Next, 20% fetal bovin serum was added to reach a final concentration of 10% foetal bovin serum in the 25 cm^2 flask.
(§3) Cells were rinsed with ice cold PBS and lysed in 150 mM NaCl, 50 mM Tris-HCl pH 8, 1% Triton X100, 4 mM PMSF, 2 mM Aprotinin, 5 mM EDTA, 10 mM NaF, 10 mM NaPPi, 1 mM Na3VO4 for 30 min on ice. Lysates were clarified by centrifugation at 10000 g for 10 min at 4° C. and protein concentrations were determined using the Bradford assay (BIO-RAD). Equal amounts of total cellular protein (20 μg) were resolved in a Bis-tris-HCL buffered (pH 6.4) 4-12% polyacrylamide gel (NuPAGE® Novex® 4-12% Bis-tris gel, INVITROGEN) for 35 min at 200V and electrophoretically transferred on a PVDF membrane (MILLIPORE) for 75 min at 30V. The membrane was blocked for 1 hour at room temperature in T-TBS (132 mM NaCl, 20 mM Tris-HCl pH 7.6, 0.05% Tween 20) supplemented with 5% non-fat dry milk. The membrane was incubated for 1 hour at room temperature in T-TBS-milk with the following primary antibodies: anti-Bcl-XL/S (1:500, S18 SANTA-CRUZ BIOTECHNOLOGY), anti-PARP (1:1000, CELL-SIGNALING TECHNOLOGY), anti-caspase-3 (1:1000, BD BIOSCIENCES PHARMINGEN) anti-cleaved caspase-3 (1:1000, CELL-SIGNALING TECHNOLOGY), anti-alpha-tubulin (1:3000, SIGMA) and anti-Mcl-1 (1:750, S19 SANTA-CRUZ BIOTECHNOLOGY). After three washes with T-TBS, the membrane was incubated for 1 h at room temperature in T-TBS-milk with the adequate peroxidase conjugated secondary antibody (Anti-rabbit IgG, CELL-SIGNALING TECHNOLOGY, and anti-mouse IgG, AMERSHAM). After 3 washes with T-TBS and one with TBS, the immunoreactivity was detected by enhanced chemiluminescence (ECL kit, AMERSHAM).

SKOV3 cells [1] = assay: Apoptosis induction in SKOV3 cells (cell and nuclear morphology after DAPI, caspase 3 activation and PARP cleavage by Western blot); assay type: cell-based, human; details: 24 h, combination with 20 μg/ml cisplatin
Description: as §1, §2, §3
(§4) After treatment, detached cells were collected separately and adherent cells were dissociated by trypsin/EDTA. Adherent and detached cells were then pooled and centrifuged at 1500×g for 5 min before being fixed in 70% ethanol. The cells were then collected on a polylysine-coated glass slide by cytocentrifugation, before a 30 min room temperature incubation in a 1 μg/ml DAPI aqueous solution (BOEHRINGER MANNHEIM). Slides were thereafter extensively washed in distilled water and mounted in Mowiol (CALBIO-CHEM).

SKOV3 cells [2] = assay: Cell mortality, viability, growth and cell cycle of SKOV3 cells (morphology, trypan blue exclusion, FACS of DNA content); assay type: cell-based, human; details: for cell death (morphology, FACS analysis of the cell cycle): cisplatin 5 or 20 μg/ml, siRNA 150 nM; for cellular and nuclear morphologies and cell cycle versus untransfected SKOV3 cells: alone 150 nM or in combination 75 nM each, 72 h after transfection, FIG. 13
Description: as §1, §2, §4
After treatment, detached cells were collected separately. Adherent cells were then harvested by trypsin/EDTA dissociation. Adherent and detached cells were then pooled and washed in PBS before being fixed in 70% ethanol and stored at −20° C. until analysis. Before flow cytometry analysis, the cells were washed in PBS and incubated for 30 min at room temperature in PBS in order to allow the release of low molecular weight (m.w.) DNA, characteristic of apoptotic cells. After a centrifugation at 4000 g for 10 min, the cell pellets were resuspended and stained with propidium iodide (PI) using the DNA Prep Coulter Reagent Kit (BECKMAN-COULTER) at a final concentration of 10^6 cells/ml.
Samples were analyzed using an EPICS XL flow cytometer (BECKMAN COULTER) equipped with an argon laser at 15 mW. PI-stained cells were analyzed using a 488 mn excitation. A 620 nm band pass filter was put on the red fluorescence of PI. Computerized gating was applied on the side and forward scatter to exclude very small debris and on pulse width and integral peak of red fluorescence to eliminate aggregates. All samples were analyzed at a flow rate lower than 100 events per second and with a sheath pressure of 30 psi.

[3] = system: intraperitoneal SKOV3 human ovarian adenocarcinoma; assay: Survival of nude mice bearing intraperitoneal SKOV3 tumours; assay type: in vivo, Swiss/nude mice; details: siRNA 25 μg/kg, cisplatin 4 μg/kg intraperitoneal, treatment repeated one month later, FIG. 15
Description: 4-week-old female Swiss/nude mice were obtained from CHARLES-RIVER LABORATORIES and maintained in a pathogen-free environment. The mice were fed a standard laboratory diet and tap water ad libitum and kept a 23±1° C. with a 12 h light/dark cycle. Animal experiments in the present study were performed in compliance with the guidelines of the Federation of european laboratory animal science associations.
6-8 weeks old mice were implanted intraperitoneally with 2×10^7 ovarian adenocarcinoma SKOV3 cells. As described previously, this model reflects the i.p growth pattern of advanced ovarian cancer (Louis et al, Cancer Gene Therapy, 2006, 13, 367-374).
Twenty one days after tumour implantation, mice were allocated to one of the eight treatment groups (10 mice per group) summarized in Table II: • Group 1 comprised untreated animals. • Group 2 received intraperitoneal injection of 4 μg/kg cisplatin in 1 ml 0.9% NaCl solution. • Group 3 received intraperitoneal injection of 25 μg/kg control siRNA in 1 ml 0.9% NaCl. • Group 4 received intraperitoneal injection of 25 μg/kg Bcl-XL siRNA in 1 ml 0.9% NaCl. • Group 5 received intraperitoneal injection of 25 μg/kg control siRNA in 1 ml 0.9% NaCl and the following day 4 μg/kg of cisplatin in 1 ml 0.9% NaCl solution. • Group 6 received intraperitoneal injection of 4 μg/kg of cisplatin in 1 ml 0.9% NaCl solution and the following day 25 μg/kg control siRNA in 1 ml 0.9% NaCl. • Group 7 received intraperitoneal injection of 25 μg/kg Bcl-XL siRNA in 1 ml 0.9% NaCl and the following day 4 μg/kg of cisplatin in 1 ml 0.9% NaCl solution. • Group 8 received intraperitoneal injection of 4 μg/kg of cisplatin in 1 ml 0.9% NaCl solution and the following day 25 μg/kg Bcl-XL siRNA in 1 ml 0.9% NaCl.
The same treatment was repeated one month later. Mice were killed and autopsied when considered as moribund. Organs and tumours were formalin-fixed and paraffin-embedded for histological examination. At the end of the experiment, all surviving animals were sacrificed, and histological examination was performed in order to detect residual tumour nodes.

Mcl-1 mRNA = assay: RT-PCR of Mcl-1 mRNA in SKOV3 cells; assay type: cell-based, human; details: 72 h after transfection, FIG. 11A
Description: as §2

Mcl-1 protein = assay: Western blot of Mcl-1 protein expression in SKOV3 cells; assay type: cell-based, human; details: FIG. 11B
Description: as §2
Cells were rinsed with ice cold PBS and lysed in 150 mM NaCl, 50 mM Tris-HCl pH 8, 1% Triton X100, 4 mM PMSF, 2 mM Aprotinin, 5 mM EDTA, 10 mM NaF, 10 mM NaPPi, 1 mM Na3VO4 for 30 min on ice. Lysates were clarified by centrifugation at 10000 g for 10 min at 4° C. and protein concentrations were determined using the Bradford assay (BIO-RAD). Equal amounts of total cellular protein (20 μg) were resolved in a Bis-tris-HCL buffered (pH 6.4) 4-12% polyacrylamide gel (NuPAGE® Novex® 4-12% Bis-tris gel, INVITROGEN) for 35 min at 200V and electrophoretically transferred on a PVDF membrane (MILLIPORE) for 75 min at 30V. The membrane was blocked for 1 hour at room temperature in T-TBS (132 mM NaCl, 20 mM Tris-HCl pH 7.6, 0.05% Tween 20) supplemented with 5% non-fat dry milk. […] After 3 washes with T-TBS and one with TBS, the immunoreactivity was detected by enhanced chemiluminescence (ECL kit, AMERSHAM).

| Molecule | Bcl-XL protein expression 24 hours after exposure to cisplatin (Bcl-XL protein; 72 hours after siRNA transfection, cisplatin 5 and 20 μg/ml, FIG. 9) | caspase 3 activation and PARP cleavage after 24 h exposure to cisplatin (SKOV3 cells [1]) | cell mortality / cell cycle after several days (SKOV3 cells [2]; SKOV3 cells, cisplatin 5 and 20 μg/ml) | cell death (morphology, FACS analysis of the cell cycle) (SKOV3 cells [2]; SKOV3 cells) | effect on mice survival [3] | effect of various concentrations on Bcl-XL protein expression (Bcl-XL protein; 72 h after transfection, FIG. 3) | cellular and nuclear morphologies and cell cycle versus untransfected SKOV3 cells (SKOV3 cells [2]) | cytotoxic effect on SKOV3 cells (SKOV3 cells [2]; 50 nM each siRNA, absence of cisplatin, FIG. 12) | cytotoxic effect of each siRNA (SKOV3 cells [2]; SKOV3 cells, FIGS. 13 and 14) | Mcl-1 mRNA expression (RT-PCR) (Mcl-1 mRNA) | Mcl-1 protein expression after 72 hours (Mcl-1 protein) |
| --- | --- | --- | --- | --- | --- | --- | --- | --- | --- | --- | --- |
| N.N.[Cl][Pt][Cl] [cisplatin, cis-diamino-dichloro-platinum II, reference compound] | no effect | no sign of apoptosis | only a transient arrest in cell cycle progression | low level or no cell death | does not improve survival | – | – | – | – | – | – |
| control siRNA: control siRNA without homology to relevant human genes; sense SEQ ID NO: 9, anti-sense SEQ ID NO: 10 (sense GACGUGGGACUGAAGGGGUTT; antisense ACCCCUUCAGUCCCACGUCTT; chemistry not given here) [reference compound] | – | – | – | no changes | does not increase the mice survival | No effect | no difference | – | – | – | – |
| siMcl-1: Mcl-1 specific siRNA; sense 5′-gugccuuuguggcuaaacatt-3′ (SEQ ID NO: 7), anti-sense 5′-uguuuagccacaaaggcacct-3′ (SEQ ID NO: 8) (sense GUGCCUUUGUGGCUAAACATT; antisense UGUUUAGCCACAAAGGCACCT; chemistry not given here) | – | – | – | – | – | – | no difference | no cytotoxic effect | slight cytoxic effect | almost completely | disappeared totally |
